In publication PMC9025941, “Influence of the Type of Amino Acid on the Permeability and Properties of Ibuprofenates of Isopropyl Amino Acid Esters” (International Journal of Molecular Sciences, 2022):
Where “and” joins values, the source holds several entries; their conditions need not be identical. Equal values may be shown once. Read-outs that look alike come from different tables or passages of the source. Marks after values point to notes of the source that are not given here.

Legend:
[1] = n-octanol-water partition coefficient, shake flask method; conditions: shake flask, 25 °C
[2] = In vitro skin permeation, Franz diffusion cells; conditions: for Q%24 h, the percentage of the applied dose permeated after 24 h / Cumulative Permeation Mass / LT, lag time: n = 3; for Q%24 h, the percentage of the applied dose permeated after 24 h / Cumulative Permeation Mass: 24 h; for EF, enhancement factor: relative to IBU; for JSS, steady-state flux: saturated solution in PBS pH 7.4, n = 3
[3] = Thermal stability (TG/DTG): decomposition onset and maximum mass-loss rate temperature
Description: In Figure 5, the thermal stability of ibuprofen and amino acid isopropyl ester ibuprofenates was determined and compared. All TG, DTG, and c-DTA curves are in the Supplementary Materials (Figures S87–S100). The decomposition onset temperature (Tonset) and the temperature of the maximum rate of mass loss (Tmax) were determined.

[4] = Solubility in organic solvents by modified Vogel's method; conditions: 25 °C
[5] = Solubility (saturation concentration) in deionised water and PBS pH 7.4, HPLC; conditions: for Solubility in Phosphate Buffer pH = 7.4: PBS pH 7.4, 32 °C; for Solubility in Water: 25 °C
[6] = saturated solution in PBS pH 7.4, mass of compound
[7] = saturated solution in PBS pH 7.4, mass of ibuprofen

SMILES | Log P (n-octanol-water partition coefficient) [1] | Q%24 h, the percentage of the applied dose permeated after 24 h [2] [%] | Cumulative Permeation Mass [2, 6] | Cumulative Permeation Mass [2, 7] | LT, lag time [2] [h] | EF, enhancement factor [2] | JSS, steady-state flux [2] [µg IBU cm^−2 h^−1] | Tonset, the onset temperature of the thermal degradation [3] [°C] | Solubility in DMSO [4] | Solubility in chloroform [4] | Solubility in dichloromethane [4] | Solubility in diethyl ether [4] | Solubility in ethanol [4] | Solubility in ethyl acetate [4] | Solubility in n-hexane [4] | Solubility in toluene [4] | Solubility in Phosphate Buffer pH = 7.4 ([5]; g of active compound (IBU)) [g IBU∙dm^−3] | Solubility in Phosphate Buffer pH = 7.4 ([5]; g of compound) [g∙dm^−3] | Solubility in Water ([5]; g of active compound (IBU)) [g IBU∙dm^−3] | Solubility in Water ([5]; g of compound) [g∙dm^−3] | also measured
CC(C)Cc1ccc(C(C)C(=O)O)cc1.CC(C)OC(=O)[C@H](C)N [[L-AlaOiPr][IBU], L-alanine isopropyl ester ibuprofenate] | 0.719 ± 0.004 | 6.786 ± 0.214 | 572.719 ± 18.05 ^b µg·cm^−2 | 350.100 ± 11.039 ^b µg IBU·cm^−2 | 1.691 ± 0.041 | 0.92 | 44.510 ± 0.861 | 78.3 | + (soluble >100 mg cm^−3) | + (soluble >100 mg cm^−3) | + (soluble >100 mg cm^−3) | +/− (partially soluble 33–100 mg cm^−3) | + (soluble >100 mg cm^−3) | + (soluble >100 mg cm^−3) | − (insoluble <33 mg cm^−3) | + (soluble >100 mg cm^−3) | 5.159 ± 0.015 | 8.440 ± 0.024 | 2.463 ± 0.008 | 4.030 ± 0.014 | –
CC(C)Cc1ccc(C(C)C(=O)O)cc1.CC(C)OC(=O)[C@@H](N)CS [[L-CysOiPr][IBU], L-cysteine isopropyl ester ibuprofenate] | 1.430 ± 0.005 | 12.210 ± 1.119 | 541.776 ± 49.664 ^b µg·cm^−2 | 305.756 ± 28.028 ^b µg IBU·cm^−2 | 1.873 ± 0.104 | 1.65 | 28.858 ± 2.984 | 190.2 | + (soluble >100 mg cm^−3) | + (soluble >100 mg cm^−3) | + (soluble >100 mg cm^−3) | – | + (soluble >100 mg cm^−3) | +/− (partially soluble 33–100 mg cm^−3) | − (insoluble <33 mg cm^−3) | – | 2.440 ± 0.287 | 4.437 ± 0.287 | 1.143 ± 0.253 | 2.048 ± 0.253 | –
CC(C)Cc1ccc(C(C)C(=O)O)cc1.CC(C)OC(=O)[C@@H](N)CCCCN [[L-LysOiPr][IBU], L-lysine isopropyl ester ibuprofenate] | – | 11.062 ± 0.475 | 1011.106 ± 43.448 ^b µg·cm^−2 | 528.643 ± 22.716 µg IBU·cm^−2 and 528.643 ± 22.716 ^b µg IBU·cm^−2 | 1.423 ± 0.130 | 1.49 | 56.801 ± 4.129 | – | + (soluble >100 mg cm^−3) | − (insoluble <33 mg cm^−3) | − (insoluble <33 mg cm^−3) | − (insoluble <33 mg cm^−3) | + (soluble >100 mg cm^−3) | − (insoluble <33 mg cm^−3) | − (insoluble <33 mg cm^−3) | − (insoluble <33 mg cm^−3) | 4.779 ± 0.061 | 9.140 ± 0.117 | 5.047 ± 0.060 | 9.6534 ± 0.115 | Tonset, the onset temperature of the thermal degradation ([3]; TG): 177.9 °C
